Measurements from patent publication US8258158B2 (Hoffmann-La Roche Inc., priority 2009, dated 2012).

What follows are molecules tested against T1, human HSL (Homo sapiens, UniProt Q05469) (assay: Human hormone-sensitive lipase (HSL) enzyme inhibition assay (colorimetric, DMPT substrate)). Details: human full length HSL-His6; 2,3-dimercapto-1-propanol tributyrate substrate; 37° C., 20 minutes; read-out: HSL hum IC50.
T1 construct: overlapping PCR to generate a full length human HSL ORF with a 3′-His6 tag; His6 (C); made in house; host or cells: High 5 insect cells (baculovirus, pFast-BAC)
T1 sequence (Q05469 1-1076): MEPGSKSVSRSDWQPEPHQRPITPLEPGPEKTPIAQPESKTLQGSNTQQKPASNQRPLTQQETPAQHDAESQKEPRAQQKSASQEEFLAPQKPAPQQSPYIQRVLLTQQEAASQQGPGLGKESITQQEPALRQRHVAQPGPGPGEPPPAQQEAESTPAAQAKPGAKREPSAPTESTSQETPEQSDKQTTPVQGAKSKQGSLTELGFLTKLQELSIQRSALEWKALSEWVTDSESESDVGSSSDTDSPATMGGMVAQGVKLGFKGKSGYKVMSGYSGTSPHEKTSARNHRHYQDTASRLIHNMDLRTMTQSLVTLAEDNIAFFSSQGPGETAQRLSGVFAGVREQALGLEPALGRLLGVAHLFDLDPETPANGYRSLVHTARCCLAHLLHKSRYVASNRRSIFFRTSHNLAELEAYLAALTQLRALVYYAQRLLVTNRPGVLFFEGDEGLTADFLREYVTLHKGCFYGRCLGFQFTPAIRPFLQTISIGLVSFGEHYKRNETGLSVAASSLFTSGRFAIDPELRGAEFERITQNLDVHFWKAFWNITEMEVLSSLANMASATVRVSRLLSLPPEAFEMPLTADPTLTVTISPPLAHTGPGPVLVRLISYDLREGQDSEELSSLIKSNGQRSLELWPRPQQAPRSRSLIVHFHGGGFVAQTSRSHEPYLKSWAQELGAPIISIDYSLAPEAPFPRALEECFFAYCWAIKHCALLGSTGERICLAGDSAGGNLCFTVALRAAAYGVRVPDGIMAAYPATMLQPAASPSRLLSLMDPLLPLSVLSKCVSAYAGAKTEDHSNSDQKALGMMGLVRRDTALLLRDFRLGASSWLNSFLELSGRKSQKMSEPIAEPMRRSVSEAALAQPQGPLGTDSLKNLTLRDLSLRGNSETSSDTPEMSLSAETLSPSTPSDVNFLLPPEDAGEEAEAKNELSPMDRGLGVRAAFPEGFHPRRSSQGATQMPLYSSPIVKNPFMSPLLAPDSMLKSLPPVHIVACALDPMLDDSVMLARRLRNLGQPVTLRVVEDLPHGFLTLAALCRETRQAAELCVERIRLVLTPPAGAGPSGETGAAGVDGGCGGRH
Type: biochemical
Procedure: Production of Human Full Length Hormone Sensitive Lipase-His^6:
1) Cloning: cDNA was prepared from commercial human brain polyA+ RNA and used as a template in overlapping PCR to generate a full length human HSL ORF with a 3′-His6 tag. This full length insert was cloned into the pFast-BAC vector and the DNA-sequence of several single clones was verified. DNA from a correct full length clone with the 3′His6 tag was used to transform the E. coli strain DH10BAC. Resulting bacmid DNA was used to generate a titered baculovirus stock for protein generation. The sequence of the encoded HSL conforms to Swissprot entry Q05469, with the additional C-terminal His6-tag.
2) Protein purification: Culture: 5.5 L, High 5 cells expressing human full length HSL-His^6, 48 hr., containing 25 μM E-64. Cell count: […], 90% viable. Cells were thawed. On ice, cells were suspended in Base Buffer containing 10% glycerol, 25 mM Tris-Cl, 300 mM NaCl, 10 mM imidazole, 10 mM 2-mercaptoethanol, 2 μg pepstatin/ml, 2 μg leupeptin/ml, 2 μg antipain/ml, pH 8.0 at 4° C. in a final volume of 475 ml with 3.75×10^7 cells/ml. […] was done at 3×30 sec., Lubrol PX was added to 0.2% final concentration followed by stirring for 15 min. at 4° C. and centrifugation at 25 k×g, 60 min., 4° C. Soluble proteins were mixed with 60 ml of pre-washed and equilibrated Ni-NTA Agarose (Qiagen 30210) followed by tumbling end-over-end, 45 min., 4° C., centrifugation 1000 rpm 5 min and letting resin settle 5 min. Supernatant was removed, the resin washed in the centrifuge vessel using 5 volumes of Base Buffer containing 0.2% Lubrol PX. Centrifugation was done again, then the supernatant discarded. The resin was poured onto a 0.8 μm membrane in a disposable filter unit (Nalge 450-0080), and washed with 5 volumes of Base Buffer containing 0.2% Lubrol PX. It was then washed with 30 volumes of Base Buffer containing 60 mM imidazole pH 7.5 at 4° C. The protein was eluated with 5 volumes of 25 mM Tris-Cl, 300 mM NaCl, 200 mM imidazole, 10 mM 2-mercaptoethanol, pH 7.5 at 4° C. by tumbling resin with buffer end-over-end, 30 min., 4° C. The resin was captured on a 0.2 μm membrane disposable filter unit (Millipore SCGP U02 RE) and the eluate collected in the reservoir. The eluate was concentrated using a 30 k MWCO centrifugal filter device (Sartorius Vivascience Vivacell 100, VC1022), to 20 ml. It was then dialyzed overnight at 4° C., two times against 2 L of 10% glycerol, 25 mM Tris-Cl, 300 mM NaCl, 0.2 mM EDTA, 0.2 mM DTT, pH 7.5 at 4° C. The protein was filtered using a 0.22 μm disposable filter unit (Millipore SCGP00525). The protein concentration was calculated from absorbance at 280 nm, using 280=0.67 cm-1 mg-1. Yield was 235 mg, total. The protein was stored at −80° C.
Human Hormone-Sensitive Lipase (HSL) Enzyme Inhibition Assay:
HSL enzyme activity was measured by a colorimetric assay using 2,3-dimercapto-1-propanol tributyrate (Aldrich, St. Louis, Mo.) as a substrate. Typically, 1.5 mM 2,3-dimercapto-1-propanol tributyrate (DMPT) in 100 mM MOPS, pH 7.2, 0.2 mg/ml fatty acid-free BSA was prepared by sonication at 4° C. to homogenous suspension. Test compounds (2 mM stock in DMSO) were diluted 3 fold in series in DMSO. Compound solutions were diluted 24 fold in 1.5 mM DMPT containing solution and 18 ul per well was added to 384-well microplates (Corning Costar). Twelve microliters per well of human HSL (15 ug/ml) was added and the reaction mixture was incubated at 37° C. for 20 minutes. Six microliters of 12 mM dithio-bis-(2-nitrobenzoic acid) (DTNB) in DMSO plus 1.2% SDS and 0.6% Triton X-100 were added and the mixture was incubated at room temperature for 15 minutes. Product production was monitored by reading absorbance at 405 nm on an Envision Reader (PerkinElmer Life and Analytical Sciences, Shelton, Conn.).
Work on `COC(COc1ccc(NC(=O)C2CCN(S(=O)(=O)c3ccc(C)cc3)CC2)cc1)C(F)(F)F` (racemic) [Example 53, (rac)-1-(Toluene-4-sulfonyl)-piperidine-4-carboxylic acid [4-(3,3,3-trifluoro-2-methoxy-propoxy)-phenyl]-amide] yielded an IC50 of 660 nM. In the case of `Cc1ccc(S(=O)(=O)N2CCC(C(=O)Nc3ccc(OC(C)C)cc3F)CC2)cc1` [Example 15, 1-(Toluene-4-sulfonyl)-piperidine-4-carboxylic acid (2-fluoro-4-isopropoxy-phenyl)-amide], the IC50 is reported as 470 nM. With `CC(Oc1ccc(NC(=O)C2CCN(S(=O)(=O)c3ccccc3Cl)CC2)cc1)C(F)(F)F` (racemic) [Example 40, (rac)-1-(2-Chloro-benzenesulfonyl)-piperidine-4-carboxylic acid [4-(2,2,2-trifluoro-1-methyl-ethoxy)-phenyl]-amide] the IC50 was 70 nM. `Cc1ccc(S(=O)(=O)N2CCC(C(=O)Nc3ccc(O[C@H](CCO)C(F)(F)F)cc3)CC2)cc1` [Example 60, 1-(Toluene-4-sulfonyl)-piperidine-4-carboxylic acid [4-((R)-3-hydroxy-1-trifluoromethyl-propoxy)-phenyl]-amide] gave an IC50 of 70 nM. In the case of `Cc1ccc(S(=O)(=O)N2CCC(C(=O)N(C)c3ccc(OC(C)C(F)(F)F)cc3)CC2)cc1` (racemic) [Example 5, (rac)-1-(Toluene-4-sulfonyl)-piperidine-4-carboxylic acid methyl-[4-(2,2,2-trifluoro-1-methyl-ethoxy)-phenyl]-amide], the IC50 is reported as 120 nM. Work on `O=C(Nc1ccc(OC(F)(F)F)cc1)C1(F)CCN(S(=O)(=O)c2ccccc2Cl)CC1` [Example 30, 1-(2-Chloro-benzenesulfonyl)-4-fluoro-piperidine-4-carboxylic acid (4-trifluoromethoxy-phenyl)-amide] yielded an IC50 of 180 nM. `Cc1ccc(S(=O)(=O)N2CCC(F)(C(=O)Nc3ccc(OC(C)C)cc3)CC2)cc1` [Example 19, 4-Fluoro-1-(toluene-4-sulfonyl)-piperidine-4-carboxylic acid (4-isopropoxy-phenyl)-amide] gave an IC50 of 740 nM. In the case of `Cc1ccc(S(=O)(=O)N2CCC(C(=O)Nc3ccc(OC(C)C)cc3)CC2)cc1` [Example 7, 1-(Toluene-4-sulfonyl)-piperidine-4-carboxylic acid (4-isopropoxy-phenyl)-amide], the IC50 is reported as 70 nM. Molecule `COCC(Oc1ccc(NC(=O)C2CCN(S(=O)(=O)c3ccc(C)cc3)CC2)cc1)C(F)(F)F` (racemic) [Example 54, (rac)-1-(Toluene-4-sulfonyl)-piperidine-4-carboxylic acid [4-(2,2,2-trifluoro-1-methoxymethyl-ethoxy)-phenyl]-amide] has an IC50 of 80 nM. `Cc1ccc(S(=O)(=O)N2CCC(C(=O)Nc3ccc(OC(C)C4CC4)cc3)CC2)cc1` (racemic) [Example 34, (rac)-1-(Toluene-4-sulfonyl)-piperidine-4-carboxylic acid [4-(1-cyclopropyl-ethoxy)-phenyl]-amide] showed an IC50 of 90 nM. Work on `Cc1ccc(S(=O)(=O)N2CCC(C(=O)Nc3ccc(OC(CO)C(F)(F)F)cc3)CC2)cc1` (racemic) [Example 45, (rac)-1-(Toluene-4-sulfonyl)-piperidine-4-carboxylic acid [4-(2,2,2-trifluoro-1-hydroxymethyl-ethoxy)-phenyl]-amide] yielded an IC50 of 150 nM. For `Cc1ccc(S(=O)(=O)N2CCC(F)(C(=O)Nc3ccc(OC(F)(F)F)cc3)CC2)cc1` [Example 18, 4-Fluoro-1-(toluene-4-sulfonyl)-piperidine-4-carboxylic acid (4-trifluoromethoxy-phenyl)-amide], the IC50 was 550 nM. With `O=C(NCC1(c2ccc(Cl)cc2)CC1)C1CCN(S(=O)(=O)c2ccccc2Cl)CC1` [Example 61, 1-(2-Chloro-benzenesulfonyl)-piperidine-4-carboxylic acid [1-(4-chloro-phenyl)-cyclopropylmethyl]-amide] the IC50 was 640 nM.
